Reference: patent US6509358B2, “Piperidino-phenyl amino squarate and thiadiazole dioxide beta-3 adrenergic receptor agonists” (Wyeth, priority 2000, dated 2003)

What was measured:
human β3-AR = molecular target: T1, human β3-AR (Homo sapiens, UniProt P13945); assay: cAMP accumulation (SPA) in CHO cells transfected with human β3-AR; assay type: cell-based; conditions: for EC50: CHO cells transfected with human β3-AR, cAMP, 30 min at 37° C., 10^-9 M to 10^-5 M; for IA(β3): maximal response of compound relative to maximal response of isoproterenol at 10^-5 M
T1 construct: Full-length β3-AR clones (402 amino acids) containing the last 6 amino acids of hβ3-AR; expressed in transfected cells; host or cells: CHO cells
Experimental: Binding to the receptors was measured in Chinese Hamster ovary (CHO) cells that were transfected with β1-, β2-, and β3-AR's. The following briefly summarizes the procedures used and results obtained. Cloning of Human β3-AR Genomic DNA: cDNA was constructed by ligating four polymerase chain reaction (PCR) products using the following primers: an ATG-Narl fragment, sense primer [NT] and anti-sense primer [NT]; a […] fragment, [NT] as sense and [NT] as anti-sense primer; an […] fragment, sense primer [NT] and anti-sense primer [NT] and a Styl-TAG fragment, with sense primer [NT] and anti-sense primer [NT]. The corresponding primer sequences are described in Mantzoros, C. S., et.al., Diabetes, 1996, 45, 909-914. The four fragments are ligated into a pUC 18 plasmid (Gibco-BRL) and sequenced. Full-length β3-AR clones (402 amino acids) containing the last 6 amino acids of hβ3-AR are prepared with the β3-β[…]3 from ATTC. Binding Procedure: Clones expressing receptor levels of 70 to 110 fmoles/mg protein were used in the test procedures. CHO cells were grown in 24-well tissue culture plates in Dulbecco's Modified Eagle Media with 10% fetal bovine serum, MEM non-essential amino acids, Penicillin-Streptomycin and Geneticin. On the day of test procedure, growth medium was replaced with preincubation media (Dulbecco's Modified Eagle Media) and incubated for 30 minutes at 37° C. […] Isoproterenol (10^-5 M) was used as an internal standard for comparison of activity. Cells were incubated at 37° C. on a rocker for 30 min with the β3-AR transfected cells and 15 min with β1-AR and β2-AR transfected cells. Incubation was stopped by the addition of 0.2N HCl and the acid was neutralized with 2.5N NaOH. The plates, containing the cells and neutralized media, were stored at -20 ° C. until ready to test for cAMP using the SPA test kit (Amersham). Data Analysis and Results: Data collected from the SPA test procedure were analyzed as percent of the maximal isoproterenol response at 10^-5 M. Activity curves were plotted using the SAS statistical and graphics software. […] IA=% activity compound % activity isoproterenol

T1 sequence (P13945 whole entry): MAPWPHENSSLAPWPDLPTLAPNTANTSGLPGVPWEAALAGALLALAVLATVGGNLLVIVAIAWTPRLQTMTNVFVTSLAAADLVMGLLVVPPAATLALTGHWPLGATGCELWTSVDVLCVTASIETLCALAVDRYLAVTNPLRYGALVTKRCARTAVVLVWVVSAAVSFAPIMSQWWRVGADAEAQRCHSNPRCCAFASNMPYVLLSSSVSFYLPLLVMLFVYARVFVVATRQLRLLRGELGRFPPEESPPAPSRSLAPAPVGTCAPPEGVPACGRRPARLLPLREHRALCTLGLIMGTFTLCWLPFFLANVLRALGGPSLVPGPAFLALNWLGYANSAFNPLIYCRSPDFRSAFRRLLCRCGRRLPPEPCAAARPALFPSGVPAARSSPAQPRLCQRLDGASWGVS

SMILES	EC50 (human β3-AR) [nM]	IA(β3) (human β3-AR)	melting point
O=S1(=O)N=C(NCCc2ccc(F)cc2)C(Nc2ccc(N3CCC(NC[C@H](O)COc4ccc(O)cc4)CC3)cc2)=N1 [Example 5, 4-((2S)-3-[1-(4-{4-[2-(4-Fluoro-phenyl)-ethylamino]-1,1-dioxo-1H-1.lambda(6).-[1,2,5]thiadiazol-3-ylamino}-phenyl)-piperidin-4-ylamino]-2-hydroxy-propoxy}-phenol]	8	1.0	
COC(=O)[C@@H](Cc1ccccc1)Nc1c(Nc2ccc(N3CCC(NC[C@H](O)c4ccc(O)c(NS(C)(=O)=O)c4)CC3)cc2)c(=O)c1=O [Example 2, Methyl (2R)-2-{[2-(4-{4-[((2R)-2-hydroxy-2-{4-hydroxy-3-[(methylsulfonyl)amino]phenyl}ethyl)amino]piperidin-1-yl}anilino)-3,4-dioxocyclobut-1-en-1-yl]amino}-3-phenylpropanoate]	200	0.80	
CCCCCCCCNC1=NS(=O)(=O)N=C1Nc1ccc(N2CCC(NC[C@H](O)COc3ccc(O)cc3)CC2)cc1 [Example 4, 4-((2S)-2-Hydroxy-3-{1-[4-(4-octylamino-1,1-dioxo-1H-1.lambda(6)-[1,2,5]thiadiazol-3ylamimo)-phenyl]-piperidin-4-ylamino}-propoxy)-phenol]	4	0.96	198 to 204 °C
COc1ccc(CCNC2=NS(=O)(=O)N=C2Nc2ccc(N3CCC(NC[C@H](O)COc4ccc(O)cc4)CC3)cc2)cc1 [Example 1]	633	0.69	

Results, then the molecule that gave them:

EC50 (human β3-AR) [nM]	IA(β3) (human β3-AR)	melting point	SMILES
99	0.40	120 °C (dec.)	COC(=O)CNC1=NS(=O)(=O)N=C1Nc1ccc(N2CCC(NC[C@H](O)c3ccc(O)c(NS(C)(=O)=O)c3)CC2)cc1 [Example 3, Methyl {[4-(4-{4-[((2R)-2-hydroxy-2-{4-hydroxy-3-[(methylsulfonyl)amino]phenyl}ethyl)amino]piperidin-1-yl}anilino)-1,1-dioxido1,2,5-thiadiazol-3-yl]amino}acetate]
42	0.9		COC(=O)C(Cc1ccccc1)NC1=NS(=O)(=O)N=C1Nc1ccc(N2CCC(NCC(O)c3ccc(O)c(NS(C)(=O)=O)c3)CC2)cc1 [Example 6, Methyl 2-{[4-(4-{4-[((2R)-2-hydroxy-2-{4-hydroxy-3-[(methylsulfonyl)amino]phenyl}ethyl)amino]piperidin-1-yl}anilino)-1,1-dioxido-1,2,5-thiadiazol-3-yl]amino}-3-yl]amino}-3-phenylpropanoate]
		240 °C (dec.)	COC(=O)[C@@H](Cc1ccccc1)Nc1c(Nc2ccc(N3CCC(NC[C@H](O)c4ccc(O)c(NS(C)(=O)=O)c4)CC3)cc2)c(=O)c1=O (hydrate or solvate) [Example 2, Methyl (2R)-2-{[2-(4-{4-[((2R)-2-hydroxy-2-{4-hydroxy-3-[(methylsulfonyl)amino]phenyl}ethyl)amino]piperidin-1-yl}anilino)-3,4-dioxocyclobut-1-en-1-yl]amino}-3-phenylpropanoate]
		210 °C (dec.)	COC(=O)C(Cc1ccccc1)NC1=NS(=O)(=O)N=C1Nc1ccc(N2CCC(NCC(O)c3ccc(O)c(NS(C)(=O)=O)c3)CC2)cc1 (hydrate or solvate) [Example 6, Methyl 2-{[4-(4-{4-[((2R)-2-hydroxy-2-{4-hydroxy-3-[(methylsulfonyl)amino]phenyl}ethyl)amino]piperidin-1-yl}anilino)-1,1-dioxido-1,2,5-thiadiazol-3-yl]amino}-3-yl]amino}-3-phenylpropanoate]
